Experimental data published in patent US20100292185A1, “BETA-LACTAMASE INHIBITORS” (priority 2009, published 2010).
Where a name gives a salt, the structure may show the parent alone.

Columns and labels:
CTX-M15 β-lactamase = biological target: T1, CTX-M15 β-lactamase (Escherichia coli, UniProt Q9EXV5); assay: β-lactamase enzyme inhibition assay (nitrocefin substrate), CTXM-15; assay type: biochemical
T1 construct: expressed as native untagged proteins; made in house; host or cells: E. coli BL21(DE3)
In short: (§1)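 IC50 values reflect a 50% drop in the initial rate of nitrocefin (100 μM final) hydrolysis, monitored at 486 nm. Inhibitor was preincubated with the purified native enzyme for 10 min at 37 °C in PBS pH 7.0.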

[1] = system: P. aeruginosa expressing the Class B metallo β-lactamase VIM-2; assay: In vitro antibacterial assay of β-lactamase inhibition (broth microdilution MIC), P. aeruginosa VIM-2; assay type: cell-based; details: in presence of Ceftazidime 16 μg/mL (Examples 1-56)
In short: (§2)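 MIC read by eye after 16–20 h at 37° C, with CLSI-standard inocula of strains grown 3–5 h in CAMHB containing 50 μg/mL ampicillin. Compounds tested in final 2-fold dilutions from 8 to 0.015 μg/mL together with a β-lactam antibiotic.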

[2] = system: E. coli expressing the Class A ESBL SHV-5; assay: In vitro antibacterial assay of β-lactamase inhibition (broth microdilution MIC), E. coli SHV-5; assay type: cell-based; details: in presence of Ceftazidime 8 μg/ml (Examples 1-56)
In short: as §2

[3] = system: K. pneumoniae expressing the Class A Extended Spectrum Beta-Lactamase (ESBL) CTX-M-15; assay: In vitro antibacterial assay of β-lactamase inhibition (broth microdilution MIC), K. pneumoniae CTX-M-15; assay type: cell-based; details: in presence of Ceftazidime 8 μg/ml (Examples 1-56)
In short: as §2

KPC-2 β-lactamase = biological target: T2, KPC-2 β-lactamase (Klebsiella pneumoniae, UniProt Q9F663); assay: β-lactamase enzyme inhibition assay (nitrocefin substrate), KPC-2; assay type: biochemical
T2 construct: expressed as native untagged proteins; made in house; host or cells: E. coli BL21(DE3)
In short: as §1

[4] = biological target: T3, VIM-2 metallo β-lactamase (Pseudomonas aeruginosa, UniProt Q9K2N0); assay: β-lactamase enzyme inhibition assay (nitrocefin substrate), VIM-2; assay type: biochemical; details: nitrocefin 100 μM, 37° C., PBS pH 7.0; read-out: VIM-2 IC50
T3 construct: made in house
In short: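 VIM-2 was expressed untagged in E. coli BL21(DE3) and purified by two Q sepharose anion-exchange runs plus gel filtration to >90% purity. Compounds at 100–0.005 μM in PBS pH 7.0 were preincubated with enzyme for 10 min at 37° C, then nitrocefin was added at 100 μM final. Hydrolysis was followed kinetically at 486 nm for 10 min; IC50 is the concentration halving the initial rate relative to no-inhibitor wells.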

[5] = system: E. cloacae expressing the Class C P99+; assay: In vitro antibacterial assay of β-lactamase inhibition (broth microdilution MIC), E. cloacae P99+; assay type: cell-based; details: in presence of Ceftazidime 8 μg/ml (Examples 1-56)
In short: as §2

[6] = system: K. pneumoniae expressing the Class A carbapenemase KPC-2; assay: microbe, parasite or virus in culture; assay type: cell-based; details: in presence of Ceftazidime 8 μg/ml (Examples 1-56)
In short: as §2

OXA-23 β-lactamase = biological target: T4, OXA-23 β-lactamase (Acinetobacter baumannii, UniProt Q9L4P2); assay: β-lactamase enzyme inhibition assay (nitrocefin substrate), OXA-23 crude extract; assay type: biochemical; details: nitrocefin 100 μM, 37° C., PBS pH 7.0; read-out: OXA-23 IC50
T4 construct: crude β-lactamase extracts were prepared from 20 ml overnight cultures; endogenous in cells; host or cells: Acinetobacter baumannii cells containing OXA-23 (crude freeze-thaw extract)
In short: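 Crude enzyme came from freeze-thaw extracts of mid-log OXA-23-carrying A. baumannii grown in MH-II broth at 37° C. Inhibitors (100–0.005 μM in PBS pH 7.0) were preincubated with the enzyme for 10 min at 37° C, then 100 μM nitrocefin (final) was added and read kinetically at 486 nm for 10 min. IC50 was taken from initial hydrolysis rates relative to uninhibited controls.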

SHV-5 β-lactamase = biological target: T5, SHV-5 β-lactamase (Klebsiella pneumoniae, UniProt P0A3M1); assay: β-lactamase enzyme inhibition assay (nitrocefin substrate), SHV-5; assay type: biochemical
T5 construct: expressed as native untagged proteins; made in house; host or cells: E. coli BL21(DE3)
In short: as §1

p99 AmpC β-lactamase = biological target: T6, p99 AmpC β-lactamase (Enterobacter cloacae, UniProt P05364); assay: β-lactamase enzyme inhibition assay (nitrocefin substrate), P99 AmpC; assay type: biochemical; details: nitrocefin 100 μM, 37° C., PBS pH 7.0; read-out: P99 AmpC IC50
T6 construct: expressed as native untagged proteins; made in house; host or cells: E. coli BL21(DE3)
In short: as §1

T1 sequence (Q9EXV5 entry or part of it): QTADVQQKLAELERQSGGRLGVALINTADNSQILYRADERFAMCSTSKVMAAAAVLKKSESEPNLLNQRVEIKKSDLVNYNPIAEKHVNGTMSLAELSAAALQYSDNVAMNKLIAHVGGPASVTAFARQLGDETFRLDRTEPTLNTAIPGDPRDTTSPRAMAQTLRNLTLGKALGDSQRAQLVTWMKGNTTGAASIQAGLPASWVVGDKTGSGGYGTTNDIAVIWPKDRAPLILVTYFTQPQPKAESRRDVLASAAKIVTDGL
T4 sequence (Q9L4P2 18-273): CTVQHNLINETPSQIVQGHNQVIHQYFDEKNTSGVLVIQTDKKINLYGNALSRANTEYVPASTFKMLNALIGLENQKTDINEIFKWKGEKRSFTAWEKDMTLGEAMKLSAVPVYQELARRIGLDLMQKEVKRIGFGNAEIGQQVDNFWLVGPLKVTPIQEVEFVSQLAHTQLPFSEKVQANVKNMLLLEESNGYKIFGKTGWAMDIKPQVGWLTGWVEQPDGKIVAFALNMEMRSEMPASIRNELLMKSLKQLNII
T5 sequence (P0A3M1 22-286): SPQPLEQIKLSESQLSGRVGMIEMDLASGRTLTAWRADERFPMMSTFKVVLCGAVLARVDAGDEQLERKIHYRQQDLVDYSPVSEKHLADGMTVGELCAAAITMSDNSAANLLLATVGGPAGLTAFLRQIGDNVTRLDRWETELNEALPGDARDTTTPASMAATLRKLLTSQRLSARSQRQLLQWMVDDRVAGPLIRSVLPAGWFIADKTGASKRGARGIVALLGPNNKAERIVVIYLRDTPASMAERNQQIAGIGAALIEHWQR
T6 sequence (P05364 21-381): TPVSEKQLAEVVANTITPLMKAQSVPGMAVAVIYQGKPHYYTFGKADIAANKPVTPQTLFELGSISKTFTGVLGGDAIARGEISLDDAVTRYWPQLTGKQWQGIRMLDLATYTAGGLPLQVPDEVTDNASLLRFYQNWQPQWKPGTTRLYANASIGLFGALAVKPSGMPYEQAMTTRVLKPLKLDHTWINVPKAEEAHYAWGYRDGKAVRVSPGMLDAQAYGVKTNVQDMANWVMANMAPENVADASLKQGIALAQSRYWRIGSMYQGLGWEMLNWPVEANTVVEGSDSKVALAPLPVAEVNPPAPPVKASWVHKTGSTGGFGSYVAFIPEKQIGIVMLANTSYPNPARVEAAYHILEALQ
T2 sequence (Q9F663 25-293 limits assumed): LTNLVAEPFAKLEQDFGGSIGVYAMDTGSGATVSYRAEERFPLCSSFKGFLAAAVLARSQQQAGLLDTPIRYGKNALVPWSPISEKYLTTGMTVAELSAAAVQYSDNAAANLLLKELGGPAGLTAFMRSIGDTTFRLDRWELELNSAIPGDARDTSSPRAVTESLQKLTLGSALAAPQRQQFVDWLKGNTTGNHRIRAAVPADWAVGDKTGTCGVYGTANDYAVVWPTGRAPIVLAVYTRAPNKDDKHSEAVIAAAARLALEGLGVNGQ

SMILES | IC50 (CTX-M15 β-lactamase) [nM] | MIC of example compound, P. aeruginosa VIM-2 [1] [µg/mL] | MIC of example compound, E. coli SHV-5 [2] [µg/mL] | MIC of example compound, K. pneumoniae CTX-M-15 [3] [µg/mL] | IC50 (KPC-2 β-lactamase) [nM] | IC50 [4] [nM] | MIC of example compound, E. cloacae P99+ [5] [µg/mL] | MIC of example compound, K. pneumoniae KPC-2 [6] [µg/mL] | IC50 (OXA-23 β-lactamase) [nM] | IC50 (SHV-5 β-lactamase) [nM] | IC50 (p99 AmpC β-lactamase) [nM]
Cl.NCCNCc1ccc(C(=O)N[C@@H](Cc2cccc(C(=O)O)c2O)B(O)O)cc1 [Example 15, (1R)-[4-(2-amino-ethylamino)-methyl]-benzoylamino-(3-carboxy-2-hydroxy)benzyl-methyl boronic acid hydrochloride] | 7 | >8 | 4 | 0.25 | 18 | 47 | 4 | 0.01 | > 1000 | > 1000 | 5
NCCNCc1cccc(C(=O)N[C@@H](Cc2cccc(C(=O)O)c2O)B(O)O)c1 [Example 18, (1R)-[3-{(2-aminoethylamino)-methyl}-benzoylamino]-(3-carboxy-2-hydroxy)benzyl-methylboronic acid formate] | 1 | >8 | 8 | 0.5 | 14 | 99 | 0.25 | 0.06 | 41 | 257 | 0.3
O=C(N[C@@H](Cc1cccc(C(=O)O)c1O)B(O)O)c1cccc(CNCc2cccnc2)c1 [Example 19, (1R)-(3-{[(pyridin-3-ylmethyl)amino]methyl}-benzoylamino)-(3-carboxy-2-hydroxy)benzyl-methylboronic acid formate] | 1 | >8 | 8 | 2 | 6 | 510 | 2 | 0.12 | 19 | 54 | 0.2
O=C(N[C@@H](Cc1cccc(C(=O)O)c1O)B(O)O)c1cccc(CN2CCNCC2)c1 [Example 20, (1R)-(3-piperazin-1-ylmethyl-benzoylamino-(3-carboxy-2-hydroxy)benzyl-methylboronic acid formate] | 20 | >8 | 4 | 1 | 9 | 179 | 2 | 0.03 | 22 | 42 | 0.3
CNCc1cccc(C(=O)N[C@@H](Cc2cccc(C(=O)O)c2O)B(O)O)c1 [Example 21, (1R)-(3-methylaminomethyl-benzoylamino)-(3-carboxy-2-hydroxy)benzyl-methylboronic acid formate] | 3 | >8 | 4 | 1 | 19 | 142 | 0.25 | 0.01 | 33 | 830 | 2
Cc1cc(NCc2cccc(C(=O)N[C@@H](Cc3cccc(C(=O)O)c3O)B(O)O)c2)no1 [Example 28, (1R)-[3-{(5-methyl-isoxazol-3-ylamino)-methyl}-benzoylamino]-(3-carboxy-2hydroxy)benzyl-methylboronic acid formate] | 0.7 | >8 | 8 | 4 | 4 | 304 | 2 | 2 | 9 | 15 | 0.2
NCc1cccc(CC(=O)N[C@@H](Cc2cccc(C(=O)O)c2O)B(O)O)c1 [Example 29, (1R)-[2-(3-aminomethyl-phenyl)-acetylamino]-(3-carboxy-2hydroxy)benzyl-methylboronic acid formate] | 9 | >8 | 0.5 | 0.12 | 16 | 882 | 0.12 | 0.03 | 591 | 5 | 6
NCc1ccc(CC(=O)N[C@@H](Cc2cccc(C(=O)O)c2O)B(O)O)cc1 [Example 30, (1R)-[2-(4-aminomethyl-phenyl)-acetylamino]-(3-carboxy-2hydroxy)benzyl-methylboronic acid formate] | 7 | >8 | 0.5 | 0.06 | 9 | 271 | 0.12 | 0.01 | 252 | 3 | 12
O=C(N[C@@H](Cc1cccc(C(=O)O)c1O)B(O)O)c1cccc(CNc2nccs2)c1 [Example 31, (1R)-[3-(thiazol-2-ylaminomethyl)-benzoylamino]-(3-carboxy-2-hydroxy)benzyl-methylboronic acid] | 0.5 | >8 | 8 | 4 | 3 | 295 | 2 | 0.25 | 10 | 13 | 0.6
CC(=O)NCc1ccc(CC(=O)N[C@@H](Cc2cccc(C(=O)O)c2O)B(O)O)cc1 [Example 32, (1R)-[2-(4-acetylaminomethyl-phenyl)-acetylamino]-(3-carboxy-2hydroxy)benzyl-methylboronic acid] | 2 | >8 | 0.5 | 0.5 | 4 | > 1000 | >8 | 4 | 116 | 0.3 | 2
CNCc1ccc(CC(=O)N[C@@H](Cc2cccc(C(=O)O)c2O)B(O)O)cc1 [Example 33, (1R)-[2-(4-methylaminomethyl-phenyl)-acetylamino]-(3-carboxy-2hydroxy)benzyl-methylboronic acid formate] | 8 | >8 | 0.5 | 0.12 | 12 | 336 | 0.25 | 0.06 | 379 | 5 | 7
